Patent US5883287A, “Vinyl sulfide compounds and a process for their preparation” (Lumigen, Inc., priority 1997, dated 1999)

Experiments:
Type in all cases: physicochemical
[1] = Stability of dioxetane on silica (TLC versus NMR); details: TLC on silica compared with 1H NMR
Description: (c) Synthesis of 4-ethylthio-4-(3-pivaloyloxyphenyl)spiro[1,2-dioxetane-3,2'-tricyclo[3.3.1.1^3,7 ]decane] (2). A small photooxygenation apparatus was charged with 60 mg (0.16 mmol) of the vinyl sulfide, 180 mg of polymer-bound Rose Bengal (U.S. Pat. No. 4,315,998), and 20 mL of CH2 Cl2 dried over MgSO4. The resulting mixture was then cooled to -78° C. with oxygen bubbling through it. After several minutes, the reaction solution was irradiated with a 1000 W sodium lamp for 25 min. […] The sensitizer was filtered off, the solvent evaporated at 0° C. and the material examined by ^1 H NMR.

[2] = First order decay of chemiluminescence (base-induced decay) of hydroxyphenyl alkylthio dioxetane in alkaline buffer with surfactant enhancers; details: 0.2M 221 buffer pH 9.6, 0.88 mM Mg+2, ambient temperature
Description: Comparison of Rates of Base-Induced Decay of a Hydroxyphenyl Alkylthio Dioxetane. The first order decay of chemiluminescence of dioxetane 3 in 0.2M 221 buffer, pH 9.6 containing 0.88 mM Mg^+2 and the surfactant enhancers shown below was measured at ambient temperature. Surfactant A is CTAB, B is poly(vinylbenzyltributylphosphonium chloride), C is poly(vinylbenzyltributylphosphonium chloride)-co-poly(vinylbenzyltrioctylphosphonium chloride), D is 1-trioctylphosphoniummethyl-4-tributylphosphoniummethylbenzene dichloride.

[3] = First order decay of chemiluminescence (base-induced decay) of hydroxyphenyl alkoxy or aryloxy dioxetanes in alkaline buffer; details: 37° C.; 0.2M 221 buffer, pH 9.6, 0.88 mM Mg+2, 1.0 mg/mL 1-trioctylphosphoniummethyl-4-tributylphosphoniummethylbenzene dichloride
Description: Comparison of Rates of Base-Induced Decay of Hydroxy-phenyl Alkoxy or Aryloxy Dioxetanes. The first order decay of chemiluminescence of dioxetanes 14-19 in 0.2M 2-methyl-2-amino-1-propanol (221) buffer, pH 9.6 containing 0.88 mM Mg^+2 and 1.0 mg/mL of 1-trioctylphosphoniummethyl-4-tributylphosphoniummethylbenzene dichloride was measured at 37° C. in a Turner Designs (Sunnyvale, Calif.) model TD-20e luminometer. The half-lives of decay of chemiluminescence (t1/2) of hydroxy-dioxetanes correlate with the times required to reach the maximum light intensity (Imax) in the alkaline phosphatase-triggered decomposition of the corresponding phosphate-dioxetanes under the same conditions. […] It is expected that, for example, the phosphate derivatives of dioxetanes 14-19 as well as others which can be produced by the process described herein will be useful in alkaline phosphatase-linkedassays known in the art.

Row | Structure (SMILES) | t1/2 of decay of chemiluminescence [3] [min] | also measured
1 | CCSC1(c2cccc(OC(=O)C(C)(C)C)c2)OOC12C1CC3CC(C1)CC2C3 (stereo not shown) [Dioxetane 2, 4-Ethylthio-4-(3-pivaloyloxyphenyl)spiro[1,2-dioxetane-3,2'-tricyclo-[3.3.1.1^3,7]decane]] | – | stability on silica [1]: less stable on silica
2 | Oc1cccc(C2(Sc3ccc(F)cc3)OOC23C2CC4CC(C2)CC3C4)c1 (stereo not shown) [Dioxetane 3, 4-(p-Fluorophenylthio)-4-(3-hydroxyphenyl)spiro[1,2-dioxetane-3,2'-tricyclo[3.3.1.1^3,7]decane]] | – | t1/2 of decay of chemiluminescence ([2]; Surfactant A (CTAB) 0.41 g/L): 11.2 min; t1/2 of decay of chemiluminescence ([2]; Surfactant B (poly(vinylbenzyltributylphosphonium chloride)) 0.5 g/L): 4.2 min; t1/2 of decay of chemiluminescence ([2]; Surfactant C (poly(vinylbenzyltributylphosphonium chloride)-co-poly(vinylbenzyltrioctylphosphonium chloride)) 0.5 g/L): 2.9 min; t1/2 of decay of chemiluminescence ([2]; Surfactant D (1-trioctylphosphoniummethyl-4-tributylphosphoniummethylbenzene dichloride) 1.0 g/L): 2.0 min
3 | Oc1cccc(C2(OCC(Cl)(Cl)Cl)OOC23C2CC4CC(C2)CC3C4)c1 (stereo not shown) [Dioxetane 15, 4-(3-Hydroxyphenyl)-4-(2,2,2-trichloroethoxy)spiro[1,2-dibxetane-3,2'-tricyclo[3.3.1.1^3,7]decane]] | 3.7 | –
4 | Oc1cccc(C2(OCC(Cl)Cl)OOC23C2CC4CC(C2)CC3C4)c1 (stereo not shown) [Dioxetane 16, 4-(2,2-Dichloroethoxy)-4-(3-hydroxyphenyl)spiro[1,2-dioxetane-3,2'-tricyclo-[3.3.1.1^3,7]decane]] | 4.1 | –
5 | Oc1cccc(C2(OCC(F)(F)C(F)(F)F)OOC23C2CC4CC(C2)CC3C4)c1 (stereo not shown) [Dioxetane 17, 4-(3-Hydroxyphenyl)-4-(2,2,3,3,3-pentafluoropropoxy)spiro[1,2-dioxetane-3,2'-tricyclo[3.3.1.1^3,7]decane]] | 3.4 | –
6 | Oc1cccc(C2(OCC(F)(F)C(F)(F)C(F)(F)F)OOC23C2CC4CC(C2)CC3C4)c1 (stereo not shown) [Dioxetane 18, 4-(2,2,3,3,4,4,4-Heptafluorobutoxy)-4-(3-hydroxyphenyl)spiro[1,2-dioxetane-3,2'-tricyclo[3.3.1.1^3,7]decane]] | 4.9 | –
7 | Oc1cccc(C2(Oc3c(F)cccc3F)OOC23C2CC4CC(C2)CC3C4)c1 (stereo not shown) [Dioxetane 19, 4-(2',6'-Difluorophenoxy)-4-(3-hydroxyphenyl)spiro[1,2-dioxetane-3,2'-tricyclo[3.3.1.1^3,7]decane]] | 1.76 | –
